Laboratory results reported in paper PMC7069095, “A cell-permeable peptide-based PROTAC against the oncoprotein CREPT proficiently inhibits pancreatic cancer” (Theranostics, 2020).

Legend:
Panc-1 cells = experiment: Confocal fluorescence imaging of FITC labeled peptides in cells; type: cell-based; conditions: confocal microscope, Panc-1 cells
Protocol: To examine whether PRTC could permeate into pancreatic cancer cells, we synthesized fluorescein isothiocyanate (FITC) labeled PRTC, PRTC-m, PRTC-v, PRTC-r (PRTC without RRRRK) as well as TAT (a widely used cell penetrating peptide, as a positive control).
Figure 3 Identification of the permeability of PRTC in Panc-1 cells. (A) Entry of FITC- labeled peptides into Panc-1 cells tested by flow cytometry. FITC-TAT is the positive control. Measurements were performed in triplicate. (B) Quantification of cellular uptake of Panc-1 cells treated with different concentrations of FITC-PRTC. (C) Confocal microscope images of Panc-1 cells treated with 10 μM FITC labeled peptides. Scale bars, 10 μm. (D) Confocal microscope images of Panc-1 cells treated with different dosages of FITC-PRTC. Scale bars, 10 μm.

[1] = target: T1, endogenous CREPT protein in Panc-1 cells (Homo sapiens, UniProt Q9NQG5); experiment: Immunofluorescence staining of CREPT in cells treated with FITC-PRTC; type: cell-based; conditions: immunofluorescence with anti-CREPT antibody
T1 construct: endogenous protein level of CREPT in Panc-1, AsPc-1 and MIA-PaCa-2 cells; endogenous in cells; host or cells: Panc-1, AsPc-1, MIA PaCa-2
T1 sequence (Q9NQG5 1-326): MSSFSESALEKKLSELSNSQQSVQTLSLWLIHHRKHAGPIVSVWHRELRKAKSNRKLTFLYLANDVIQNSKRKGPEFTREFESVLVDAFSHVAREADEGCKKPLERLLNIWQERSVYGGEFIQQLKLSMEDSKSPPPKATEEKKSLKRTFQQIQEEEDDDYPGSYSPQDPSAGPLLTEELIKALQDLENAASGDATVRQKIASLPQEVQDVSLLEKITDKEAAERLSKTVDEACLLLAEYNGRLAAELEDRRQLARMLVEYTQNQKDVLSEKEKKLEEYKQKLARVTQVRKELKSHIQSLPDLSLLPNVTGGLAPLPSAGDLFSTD
Protocol: After adherence, cells were treated with 10 μM PRTC for 24 h. The cells were then gently washed three times with warm PBS, fixed with 4% paraform and incubated with 0.25% Triton X-100 in PBST. Next, the cells were blocked in 5% BSA for 1 h at room temperature and incubated with an antibody against CREPT at 4 °C overnight. Cells were washed 3 times with PBST (0.1% Tween-20) and incubated with TRITC-labeled goat anti-mouse IgG antibody (Jackson ImmunoReseach) at a dilution rate of 1:100 at room temperature for 1 h. Coverslips were imaged by a confocal laser scanning microscope (OLYMPUS).
(§1) To address whether PRTC could induce CREPT degradation, we examined the endogenous protein level of CREPT in Panc-1, AsPc-1 and MIA-PaCa-2 cells in the presence of different dosages of PRTC. […] Consistently, treatment with PRTC led to decreases in CREPT protein at different times (Figure 5B, S3A). […] To further visualize the degradation process, we stained the endogenous CREPT protein with an antibody against CREPT in the cells treated with FITC-labeled PRTC.

[2] = target: T2, ubiquitinated CREPT in Panc-1 cells (Homo sapiens, UniProt Q9NQG5); experiment: Endogenous IP of CREPT with ubiquitin (Co-IP); type: cell-based; conditions: 10 μM peptide for 24 h, IP: CREPT, IB: anti-ubiquitin
T2 construct: endogenous protein level of CREPT in Panc-1, AsPc-1 and MIA-PaCa-2 cells; endogenous in cells; host or cells: Panc-1, AsPc-1, MIA PaCa-2
T2 sequence (Q9NQG5 1-326): T1 sequence (Q9NQG5 1-326)
Protocol: (§2) For exogenous immunoprecipitation assays, HEK293T cells were plated in 60 mm dishes and then transfected with the indicated plasmids. After 24 h, cells were harvested using RIPA buffer (50 mM Tris-HCl pH 8.0, 2 mM EDTA pH 8.0, 150 mM NaCl, 1% NP-40, 0.5% sodium deoxycholate, 0.1% SDS) with mixed protease inhibitors. Cell lysates were incubated with 2 μg of the indicated antibodies and 30 μL of protein A/G-Sepharose beads at 4 °C overnight. Beads were eluted five times with lysis buffer (50 mM Tris-HCl pH 7.6, 1 mM EDTA pH 8.0, 165 mM NaCl, 0.5% NP-40), and thereafter, a western blot assay was performed to analyze the association by using the indicated antibodies. Western blot was performed as previously reported. Anti-β-actin and anti-Flag antibodies were purchased from Sigma. Anti-Myc antibody was purchased from Santa Cruz Biotechnology. Antibody against CREPT was produced in the laboratory.
In addition, a Co-IP experiment was performed in Panc-1 cells treated with 10 μM PRTC, PRTC-m or PRTC-v for 24 h. […] In the absence of MG132, the level of ubiquitinated CREPT was further increased by PRTC (Figure 6C, compare lane 1 and lane 2).
Figure 6 The degradation of CREPT by PRTC is dependent on its VHL ligand. (A) Immunoblot of CREPT following 24 h incubation with different dosages of PRTC or PRTC-v in Panc-1 cells. (B) Immunoblot of CREPT exposed to 10 μM PRTC or PRTC-v for different time points in Panc-1 cells. (C) Endogenous IP experiment of CREPT with ubiquitin treated with 10 μM PTRC, PTRC-m or PTRC-v in Panc-1 cells. IP: CREPT, IB: Anti-ubiquitin.

MIA PaCa-2 cells = experiment: Cell proliferation assay (CCK-8); type: cell-based; conditions: 10 μM
Protocol: (§3) Cells were seeded into 96-well plates (1000 cells per well) and cultured for the indicated times. Cell viability was evaluated using a CCK-8 kit (Solarbio, Beijing, China). The value of OD450 was calculated by spectrophotometer and presented as the mean ± standard deviation (SD) from three individual experiments. […]
PaCa-2cells treatedwith deionizedH 2O(Ctrl),10μMPRTC, PRTC-mandPRTC-v. […]
(§4) (1 picture or pasted object on this page, not shown here)

AsPc-1 cells = experiment: Cell proliferation assay (CCK-8); type: cell-based; conditions: 10 μM
Protocol: as §3
CellproliferationassayofAsPc-1cellstreatedwith deionizedwater(Ctrl), 10μMPRTC,10μM […]
as §4

[3] = Circular dichroism (CD) spectroscopy; type: physicochemical; conditions: 0.1 mg/mL in deionized water, room temperature
Protocol: All peptides were dissolved in the deionized water at a final concentration of 0.1 mg/mL. The CD spectra were measured by using a 1 nm bandwidth with a 1 nm step resolution from 190 to 260 nm at room temperature (Jasco spectropolarimeter, Japan). Final spectra were obtained from the average of three parallel scans after subtracting a spectrum of deionized water recorded under the same conditions. Each sample was scanned thrice and the averaged spectrum was smoothed. The helicity were calculated by CDNN 2.1 [59], [60].

[4] = target: T1, endogenous CREPT protein in Panc-1 cells; experiment: Western blot of endogenous CREPT (degradation); type: cell-based; conditions: different dosages (24 h) or time points (10 μM)
Protocol: as §2, §1
Figure 5 PRTC induces the ubiquitination and proteasome- dependent degradation of the endogenous CREPT protein. (A) Immunoblot of CREPT following 24 h incubation with different dosages of PRTC or PRTC-m in Panc-1 cells. (B) Immunoblot of CREPT exposed to 10 μM PRTC or PRTC-m for different times in Panc-1 cells. (C) Western blot analysis of CREPT following 24 h incubation with 10 μM PTRC in Panc-1 cells. MG132 is an inhibitor of proteasome activity. (D) Immunofluorescence visualization of Panc-1 cells after treatment with PRTC for 24 h. Cells were stained with anti-CREPT antibody. Scale bars, 20 μm.

| localization of FITC labeled peptides in the cells (Panc-1 cells; 10 μM FITC labeled peptides) | subcellular localization (Panc-1 cells; increasing concentration and incubation time, repeated in AsPc-1 and MIA PaCa-2 cells) | endogenous CREPT protein at 24 h [1] | ubiquitinated CREPT proteins [2] | secondary structure by CD spectrum [3] | Helicity ([3]; 190 to 260 nm, average of three scans, calculated by CDNN 2.1) [%] | degradation of endogenous CREPT protein [4] | Substance | cell proliferation (MIA PaCa-2 cells) | cell proliferation (AsPc-1 cells) |
| --- | --- | --- | --- | --- | --- | --- | --- | --- | --- |
| strong localization | localized into the nucleus | almost completely depleted |  |  |  |  | FITC-AHX-IYP (OH) AL-AHX-KDVLSEKEKKLEEYKQKLARV-RRRRK [FITC-PRTC, fluorescein isothiocyanate (FITC) labeled PRTC] |  |  |
|  |  |  | unable to mediate the accumulation | α-helix structure | 42.2 | failed to degrade | KDVLSEKEKKLEEYKQKLARV-RRRRK [PRTC-v, PRTC without the VHL ligand] | failed | failed |
